Read-outs that look alike come from different tables or passages of the source.
Legend:
[1] = system: MCF-7 human breast cancer cell line; settings: previously described compounds, cited from earlier work
isolated HER2 = isolated HER2 (Homo sapiens, UniProt P04626); assay: HER2 inhibition assay, radiometric protein kinase assay (33PanQinase Activity Assay); type: biochemical; settings: for ΔΔG Experiment (3 -> L): binding free energy difference relative to bozepinib (3), extracted from IC50 values; for IC50: isolated HER2, radiometric assay, 10 concentrations in singlicate
Description: The IC50 profile of the target compounds was determined using isolated HER2. IC50 values were measured by testing 10 concentrations (1 × 10 ^−4 M to 3 × 10 ^−9 M) of each compound in singlicate. A radiometric protein kinase assay (33PanQinase® Activity Assay) was used for measuring the kinase activity of HER2. The assay was performed in 96-well FlashPlatesTM from PerkinElmer (Boston, MA) in a 50 µl reaction volume. […] The reaction cocktails were incubated at 30 °C for 60 min. The reaction was halted with 50 µl of 2% (v/v) H3PO4, plates were aspirated and washed two times with 200 µl 0.9% (w/v) NaCl. Incorporation of ^33Pi was determined with a microplate scintillation counter (Microbeta, Wallac, Waltham, MA).
Human epidermal growth factor receptor 2 (HER2) is overexpressed in about 20% of all breast cancers. […] This prompted us to evaluated compounds 7–9 for their in vitro HER2 inhibitory effect. The IC50 profile of the target compounds was determined against isolated HER2 using a radiometric assay (Table 1).

[2] = system: MCF-7 human breast cancer cell line; assay: Proliferation assay (sulphorhodamine-B) in MCF-7; type: cell-based; settings: MCF7, 72 h of treatment, mean ± SD
Description: (§1) MCF-7, HCT-116, A-375 and SKBR cells were grown at 37 °C in an atmosphere containing 5% CO2, with Dulbecco’s modified Eagle Medium (DMEM) (Gibco, Grand Island, NY) supplemented with 10% heat-inactivated foetal bovine serum (FBS) (Gibco), 2% L-glutamine, 2.7% sodium bicarbonate, 1% Hepes buffer, 40 mg/L gentamicin and 500 mg/L ampicillin.
(§2) Compounds were dissolved in DMSO and stored at −20 °C. For each experiment, the stock solutions were further diluted in medium to obtain the desired concentrations. The final solvent concentration in cell culture was ≤ 0.1% v/v of DMSO, a concentration without any effect on cell replication. Parallel cultures of MCF-7, HCT-116, A375 and SKBR-3 cells in medium with DMSO were used as controls.
(§3) The effect of the compounds on cell viability was assessed using the sulphorhodamine-B colorimetric assay. Cells suspension (1 × 10^3 cells/well) were seeded onto 24-well plates and incubated for 24 h. The cells were then treated with different concentrations of drugs in their respective culture medium and maintained with the treatment for 3 days. Three days later, wells were aspirated and fresh medium and drug were added. Then cell cultures were maintained for 3 additional days. Thereafter, a Titertek Multiscan (Flow, Irvine, CA) at 492 nm was used. The linearity of the SRB assay was evaluated with a cell number for each cell stock before each cell growth experiment. The IC50 values were calculated from semi-logarithmic dose–response curves by linear interpolation. All the experiments were plated in triplicate wells and were carried out twice.
(§4) We then investigated the effects of the target compounds on cell proliferation on the human breast cancer cell lines MCF-7 and SKBR-3, the human colon carcinoma cell line HCT-116 and the human malignant melanoma cell line A-375. The antiproliferative activity of 7–9 was evaluated using sulphorhodamine-B colorimetric assay after 72 h of treatment (Table 3).
(§5) All experiments were conducted in duplicate and gave similar results. The data are mean ± SD of three independent determinations. MCF-7: human breast cancer cell line; SKBR3: human breast cancer cell line; HCT-116: human colon cancer cell line and A-375: human melanoma cancer cell line.

[3] = system: SKBR3 human breast cancer cell line; assay: Proliferation assay (sulphorhodamine-B) in SKBR3; type: cell-based; settings: SK-BR-3, 72 h of treatment, mean ± SD
Description: as §1, §2, §3, §4, §5

[4] = system: HCT-116 human colon cancer cell line; assay: Proliferation assay (sulphorhodamine-B) in HCT-116; type: cell-based; settings: 72 h of treatment, mean ± SD
Description: as §1, §2, §3, §4, §5

[5] = system: A-375 human melanoma cancer cell line; assay: Proliferation assay (sulphorhodamine-B) in A-375; type: cell-based; settings: 72 h of treatment, mean ± SD, read-out: IC50 A375
Description: as §1, §2, §3, §4, §5

[6] = system: MCF-7, SKBR3, HCT-116 and A-375 cell lines; assay: Proliferation assay (sulphorhodamine-B), all tumour cell lines studied; type: cell-based; settings: Homo sapiens, span over the four cell lines, read-out: IC50 against all the tumour cell lines studied
Description: as §1
Compounds were dissolved in DMSO and stored at −20 °C. For each experiment, the stock solutions were further diluted in medium to obtain the desired concentrations. The final solvent concentration in cell culture was ≤ 0.1% v/v of DMSO, a concentration without any effect on cell replication. […]
The effect of the compounds on cell viability was assessed using the sulphorhodamine-B colorimetric assay. […] The linearity of the SRB assay was evaluated with a cell number for each cell stock before each cell growth experiment. The IC50 values were calculated from semi-logarithmic dose–response curves by linear interpolation. […]
as §4, with “3). […]” for “3).”

HER2 = assay: Western blot, HER2 expression in SKBR cells; type: cell-based, human; settings: 5 µM
Description: (§6) We performed a western blot to study differences in protein expression after treatment with 5 µM of 7c.
(§7) SKBR cells seeded on 6-well plates were treated during 4 h and 16, lysed using RIPA Lysis Buffer System (Santa Cruz Biotechnology, Santa Cruz, CA) and quantified by Pierce™ BCA Protein Assay Kit (Thermo Fisher Scientific, Waltham, MA). Western blot was realised using 4× Laemmli sample buffer (Bio-Rad, Hercules, CA) and separated by SDS-polyacrylamide gel electrophoresis (SDS–PAGE) and then, transferred to PVDF membranes. Blocking was realised with milk in PBS 5%.
(§8) The following primary antibodies were used to detect protein expression,: caspase 3: ref-9662S (Cell Signalling, Beverly, MA), caspase 1(14F468): sc-56036 (Santa Cruz Biotechnology, Santa Cruz, CA), cytochrome-c (A-8): sc-13156 (Santa Cruz Biotechnology, Santa Cruz, CA), Bax(B-9): sc-7480 (Santa Cruz Biotechnology, Santa Cruz, CA) and β-actin: sc-47778 (Santa Cruz Biotechnology, Santa Cruz, CA). […] Protein–antibody complexes were made visible using enhanced chemiluminescence (ECL, Bonus, Amersham, Little Chalfont, UK) with the program IMAGE READER LAS-4000 in a LAS-4000 imaging system. Quantity One program were used to analyse the intensity of the signal. […]

Bax = assay: Western blot, Bax expression in SKBR cells; type: cell-based, human; settings: 5 µM, 4 h and 16 h, control and treated cells
Description: as §6, §7, §8

cytochrome c = assay: Western blot, cytochrome c expression in SKBR cells; type: cell-based, human; settings: 5 µM
Description: as §6, §7, §8

pro-caspase 3 = assay: Western blot, pro-caspase 3 expression in SKBR cells; type: cell-based, human; settings: 5 µM
Description: as §6, §7, §8

caspase 1 = assay: Western blot, caspase 1 expression in SKBR cells; type: cell-based, human; settings: 5 µM, 16 h of exposition
Description: as §6, §7, §8

[7] = read-out: in vitro antiproliferative activity against MCF-7

isolated HER2, sequence (P04626 23-1255): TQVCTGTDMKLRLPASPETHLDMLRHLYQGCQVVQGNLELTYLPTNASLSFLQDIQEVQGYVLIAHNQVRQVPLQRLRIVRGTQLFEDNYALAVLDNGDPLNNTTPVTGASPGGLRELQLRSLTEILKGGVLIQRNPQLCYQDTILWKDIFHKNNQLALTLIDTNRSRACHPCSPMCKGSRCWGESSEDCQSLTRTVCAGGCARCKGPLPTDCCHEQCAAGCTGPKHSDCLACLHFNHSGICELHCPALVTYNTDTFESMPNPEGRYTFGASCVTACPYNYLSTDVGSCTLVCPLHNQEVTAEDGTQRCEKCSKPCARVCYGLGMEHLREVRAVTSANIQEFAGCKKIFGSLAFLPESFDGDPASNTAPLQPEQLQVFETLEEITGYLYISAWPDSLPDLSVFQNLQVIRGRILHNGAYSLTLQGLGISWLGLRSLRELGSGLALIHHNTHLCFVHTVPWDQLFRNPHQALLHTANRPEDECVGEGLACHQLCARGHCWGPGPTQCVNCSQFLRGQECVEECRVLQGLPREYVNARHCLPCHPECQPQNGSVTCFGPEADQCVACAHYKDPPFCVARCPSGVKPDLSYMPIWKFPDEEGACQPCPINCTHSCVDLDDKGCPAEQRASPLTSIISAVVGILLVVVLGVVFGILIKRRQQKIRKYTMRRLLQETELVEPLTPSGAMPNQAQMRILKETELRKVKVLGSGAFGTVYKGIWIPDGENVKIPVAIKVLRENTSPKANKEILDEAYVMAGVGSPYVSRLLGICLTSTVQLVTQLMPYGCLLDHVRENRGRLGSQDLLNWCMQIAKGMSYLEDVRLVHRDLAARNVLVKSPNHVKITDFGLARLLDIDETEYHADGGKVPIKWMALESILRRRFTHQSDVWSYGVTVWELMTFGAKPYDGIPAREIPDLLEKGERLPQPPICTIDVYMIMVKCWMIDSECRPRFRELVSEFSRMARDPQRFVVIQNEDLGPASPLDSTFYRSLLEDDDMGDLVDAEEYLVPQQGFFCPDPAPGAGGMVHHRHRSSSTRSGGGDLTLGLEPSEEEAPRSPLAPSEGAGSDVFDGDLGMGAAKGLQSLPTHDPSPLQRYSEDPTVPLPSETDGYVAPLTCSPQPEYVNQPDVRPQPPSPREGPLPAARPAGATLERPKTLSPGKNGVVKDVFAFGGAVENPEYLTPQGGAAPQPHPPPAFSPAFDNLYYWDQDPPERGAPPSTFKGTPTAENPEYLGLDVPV

| SMILES | ΔΔG Experiment (3 -> L) (isolated HER2) | IC50 (isolated HER2) | IC50 [2] | IC50 [3] | IC50 [4] | IC50 [5] | melting point | further results |
| --- | --- | --- | --- | --- | --- | --- | --- | --- |
| O=[N+]([O-])c1ccc(S(=O)(=O)N2CC(n3cnc4ncnc(Sc5ccccc5)c43)OCc3ccccc32)cc1 (stereo not shown) [Compound 1] |  |  |  |  |  |  |  | IC50 [1, 7]: 0.86 µM |
| O=[N+]([O-])c1ccccc1S(=O)(=O)N1CC(n2cnc3ncnc(Sc4ccccc4)c32)OCc2ccccc21 (stereo not shown) [Compound 2] |  |  |  |  |  |  |  | IC50 [1, 7]: 2.59 µM |
| O=[N+]([O-])c1ccccc1S(=O)(=O)N1CC(n2cnc3c(Cl)nc(Cl)nc32)OCc2ccccc21 (stereo not shown) [Compound 4] |  |  |  |  |  |  |  | IC50 ([1]; introduction, no reference number printed at the values, read-out: IC50 against the MCF-7 cell line): 0.383 µM |
| Cc1ccc(S(=O)(=O)N2CC(n3cnc4c(Cl)ncnc43)OCc3ccccc32)cc1 (stereo not shown) [Compound 7a, 6-Chloro-9-[1-(p-methylbenzenesulfonyl)-1,2,3,5-tetrahydro-4,1-benzoxazepine-3-yl]-9H-purine] | >0.76 kcal/mol | > 100 µM | 0.12 µM | 1.08 ± 0.02 µM | 1.03 ± 0.05 µM | 0.78 ± 0.03 µM | 178 to 180 °C | IC50 [6]: ≤ 1 µM |
| Cc1ccc(S(=O)(=O)N2CC(n3cnc4c(Br)ncnc43)OCc3ccccc32)cc1 (stereo not shown) [Compound 7b, 6-Bromo-9-[1-(p-methylbenzenesulfonyl)-1,2,3,5-tetrahydro-4,1-benzoxazepine-3-yl]-9H-purine] | >0.76 kcal/mol | > 100 µM | 9.57 ± 0.03 µM | 2.3 ± 0.04 µM | 3.1 ± 0.01 µM | 3.08 ± 0.01 µM | 169 to 171 °C | IC50 [6]: 2.3 to 9.57 µM |
| Cc1ccc(S(=O)(=O)N2CC(n3cnc4c(Cl)nc(Cl)nc43)OCc3ccccc32)cc1 (stereo not shown) [Compound 7c, 2,6-Dichloro-9-[1-(p-methylbenzenesulfonyl)-1,2,3,5-tetrahydro-4,1-benzoxazepine-3-yl]-9H-purine] | >0.76 kcal/mol | > 100 µM | 0.86 ± 0.06 µM | 0.42 ± 0.01 µM | 0.86 ± 0.03 µM | 0.78 ± 0.05 µM | 193 to 195 °C | HER2 expression, normalised with β-actin and relative to control (value 1) (HER2; 4 h of treatment): 0.48; HER2 expression, normalised with β-actin and relative to control (value 1) (HER2; 16 h of treatment): 0.07; Bax expression (western blot) (Bax): none expression of Bax; cytochrome c expression, normalised value relative to control (value 1) (cytochrome c; 4 h of treatment): 0.93; cytochrome c expression, normalised value relative to control (value 1) (cytochrome c; 16 h of treatment): 0.70; pro-caspase 3 expression, normalised value relative to control (value 1) (pro-caspase 3; 4 h after treatment): 1.18; pro-caspase 3 expression, normalised value relative to control (value 1) (pro-caspase 3; 16 h after treatment): 0.43; caspase 1 expression, normalised value relative to control (value 1) (caspase 1): 3.1 |

The next lines start with results.

| ΔΔG Experiment (3 -> L) (isolated HER2) | IC50 (isolated HER2) | IC50 [2] | IC50 [3] | IC50 [4] | IC50 [5] | melting point | SMILES | further results |
| --- | --- | --- | --- | --- | --- | --- | --- | --- |
| -0.8 kcal/mol | 7.31 µM | 26.46 ± 0.03 µM | 71.69 ± 0.5 µM | 19.62 ± 0.01 µM | 13.3 ± 0.07 µM | 183 to 185 °C | O=[N+]([O-])c1ccc(S(=O)(=O)N2CC(n3cnc4c(Sc5ccccc5)nc(Cl)nc43)OCc3ccccc32)cc1 (stereo not shown) [Compound 9a, 2-Chloro-6-phenylthio-9-[1-(p-nitrobenzenesulfonyl)-1,2,3,5-tetrahydro-4,1-benzoxazepine-3-yl]-9H-purine] |  |
|  | 13.3 µM | 22.4 ± 0.03 µM | > 100 µM | > 100 µM | > 100 µM | 210 to 212 °C | O=[N+]([O-])c1ccc(S(=O)(=O)N2CC(n3cnc4c(Oc5ccccc5)nc(Cl)nc43)OCc3ccccc32)cc1 (stereo not shown) [Compound 9b, 2-Chloro-6-phenoxy-9-[1-(p-nitrobenzenesulfonyl)-1,2,3,5-tetrahydro-4,1-benzoxazepine-3-yl]-9H-purine] |  |
| -0.44 kcal/mol | 14.4 µM | 20.7 ± 0.02 µM | 41.7 ± 0.79 µM | 87 ± 0.19 µM | > 100 µM | 203 to 205 °C | CN(C)c1nc(Cl)nc2c1ncn2C1CN(S(=O)(=O)c2ccc([N+](=O)[O-])cc2)c2ccccc2CO1 (stereo not shown) [Compound 9c, 2-Chloro-6-dimethylamino-9-[1-(p-nitrobenzenesulfonyl)-1,2,3,5-tetrahydro-4,1-benzoxazepine-3-yl]-9H-purine] |  |
| 0.41 kcal/mol | 55.5 µM | 13.8 ± 0.02 µM | > 100 µM | > 100 µM | > 100 µM | 182 to 183 °C | O=[N+]([O-])c1ccc(S(=O)(=O)N2CC(n3cnc4c(Nc5ccccc5)nc(Cl)nc43)OCc3ccccc32)cc1 (stereo not shown) [Compound 9d, 2-Chloro-6-anilino-9-[1-(p-nitrobenzenesulfonyl)-1,2,3,5-tetrahydro-4,1-benzoxazepine-3-yl]-9H-purine] |  |
|  | 11.5 µM | 20.5 ± 0.06 µM | > 100 µM | > 100 µM | 92.2 ± 8.9 µM | 212 to 214 °C | O=[N+]([O-])c1ccccc1S(=O)(=O)N1CC(n2cnc3c(Sc4ccccc4)nc(Cl)nc32)OCc2ccccc21 (stereo not shown) [Compound 9e, 2-Chloro-6-phenylthio-9-[1-(o-nitrobenzenesulfonyl)-1,2,3,5-tetrahydro-4,1-benzoxazepine-3-yl]-9H-purine] |  |
|  | 24.6 µM | 18 ± 0.02 µM | > 100 µM | > 100 µM | > 100 µM | 142 to 144 °C | O=[N+]([O-])c1ccccc1S(=O)(=O)N1CC(n2cnc3c(Oc4ccccc4)nc(Cl)nc32)OCc2ccccc21 (stereo not shown) [Compound 9f, 2-Chloro-6-phenoxy-9-[1-(o-nitrobenzenesulfonyl)-1,2,3,5-tetrahydro-4,1-benzoxazepine-3-yl]-9H-purine] |  |
|  | > 100 µM | 22.5 ± 0.02 µM | > 100 µM | > 100 µM | > 100 µM | 152 to 157 °C | O=[N+]([O-])c1ccccc1S(=O)(=O)N1CC(n2cnc3c(Nc4ccccc4)nc(Cl)nc32)OCc2ccccc21 (stereo not shown) [Compound 9g, 2-Chloro-6-anilino-9-[1-(o-nitrobenzenesulfonyl)-1,2,3,5-tetrahydro-4,1-benzoxazepine-3-yl]-9H-purine] |  |
